From US11242344B2, “(4-hydroxypyrrolidin-2-yl)-heterocyclic compounds and methods of use thereof” (Genentech, Inc., priority 2017, dated 2022) come the findings set out here.

For test [1], the system named is MYC expression. Put plainly: Inhibition of MYC expression in MV-4-11 cells. The class given is cell-based. The conditions noted are these: for Maximum Inhibition (%): maximum inhibition of MYC expression; for IC50: QuantiGene 2.0, geometric mean. The protocol: Pharmacologic inhibition of MYC is achievable through targeting BET bromodomains through small molecule binder or degrader mechanisms. Such inhibitors may have clinical utility given the widespread pathogenetic role of MYC in cancer. See, e.g., Mertz J, et al., “Targeting MYC dependence in cancer by inhibiting BET bromodomains,” (2011) Proc. Natl. Acad. Sci. USA, Vol. 108 (40), pp. 16669-16674.
To determine the inhibition of MYC expression, MV-4-11 cells (ATCC) were plated at 10,000 cells per well in 96-well plates in RPMI1640 media supplemented with 10% fetal bovine serum and 2 mM L-glutamine. Test compounds diluted in DMSO were transferred to the cell plates, keeping final DMSO concentration consistent at 0.1%, and incubated for 4 h at 37° C. Lysis and analysis for MYC expression were carried out using QuantiGene 2.0 reagents (Affymetrix/eBioscience, probe set cat #SA-50182) and following the vendor's instructions. Luminescence was read using an EnVision plate reader (PerkinElmer) and IC50s generated in Genedata Screener using a 4-parameter non-linear regression fit.
Effective degraders will surpass this and inhibit >95% of MYC, thus following the maximum inhibition within this assay provides valuable SAR. Where more than one measurement was performed for the same assay, the value reported is the geometric mean of all values.

Test [2] addresses NanoLuc VHL fusion protein (Homo sapiens (Human), UniProt P40337). In words: VHL HEK-293 BRET Assay (NanoBRET Target Engagement). The class given is cell-based. As to conditions: geometric mean where more than one measurement. An outline of the steps: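 HEK293 cells stably expressing NanoLuc-VHL, 2 h with compound titration and 1 uM final tracer, then Nano-Glo substrate plus extracellular NanoLuc inhibitor. BRET ratio 610/460 nm, background-corrected with no-tracer wells, normalised to DMSO and 10 uM unlabeled VHL antagonist controls; IC50 by four-parameter fit.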

Test [3] has as its target VHL Elongin B/C complex (Homo sapiens (Human), UniProt P40337). Put plainly: Fluorescence Polarization (FP) VHL Binding Assay. The conditions noted are these: VHL binding, FP assay; geometric mean where more than one measurement. An outline of the steps:
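FP tracer competition using His6-tagged human VHL (E55-D213) co-expressed with Elongin B and C in E. coli, final 2.64 nM, with TAMRA-labelled VHL ligand probe at 1.67 nM final. Buffer 50 mM Tris pH 8.0, 120 mM NaCl, 0.005% NP-40, 1% DMSO; 1 h at room temperature. Pre-assay compound/protein signal subtracted; IC50 from four-parameter fit.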
Background: In fluorescence polarisation assays a small probe gives low polarisation when free and higher when bound to something large.

Test [4] has as its target VHL co-expressed with Elongins B and C (Homo sapiens (Human), UniProt P40337). Put plainly: Surface Plasmon Resonance Assay. The class given is binding. The conditions noted are these: SPR measured VHL affinity; geometric mean where more than one measurement. An outline of the steps:
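Avidin-tagged VHL co-expressed with Elongins B and C captured on a streptavidin chip. Compounds injected low-to-high concentration at 20 °C and 80 μL/min in 50 mM HEPES pH 7.2, 150 mM NaCl, 0.5 mM TCEP, 0.001% Tween 20, 0.2% PEG3350, 2% DMSO. Kinetic parameters from fits of binding curves.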

NanoLuc VHL fusion protein, sequence (P40337 whole entry, looked up, the tested form may be a part): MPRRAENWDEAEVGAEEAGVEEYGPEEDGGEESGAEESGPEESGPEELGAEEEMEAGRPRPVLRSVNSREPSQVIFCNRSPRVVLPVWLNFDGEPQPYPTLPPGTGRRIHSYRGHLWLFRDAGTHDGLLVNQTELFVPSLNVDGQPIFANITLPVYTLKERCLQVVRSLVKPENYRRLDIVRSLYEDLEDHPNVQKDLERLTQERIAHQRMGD
NanoLuc VHL fusion protein, sequence (Q15370 whole entry partner, looked up, the tested form may be a part): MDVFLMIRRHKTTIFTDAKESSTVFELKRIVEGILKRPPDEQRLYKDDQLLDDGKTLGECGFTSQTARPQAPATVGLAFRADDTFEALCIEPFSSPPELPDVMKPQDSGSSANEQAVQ
NanoLuc VHL fusion protein, sequence (Q15369 whole entry partner, looked up, the tested form may be a part): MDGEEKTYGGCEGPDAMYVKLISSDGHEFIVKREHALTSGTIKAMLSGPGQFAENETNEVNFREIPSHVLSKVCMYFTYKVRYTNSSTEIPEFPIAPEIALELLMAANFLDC
VHL Elongin B/C complex, sequence (P40337 whole entry, looked up): as the sequence (P40337 whole entry, looked up, the tested form may be a part) above
VHL Elongin B/C complex, sequence (Q15370 whole entry partner, looked up): as the sequence (Q15370 whole entry partner, looked up, the tested form may be a part) above
VHL Elongin B/C complex, sequence (Q15369 whole entry partner, looked up): as the sequence (Q15369 whole entry partner, looked up, the tested form may be a part) above
VHL co-expressed with Elongins B and C, sequence (P40337 whole entry, looked up): as the sequence (P40337 whole entry, looked up, the tested form may be a part) above
VHL co-expressed with Elongins B and C, sequence (Q15370 whole entry partner, looked up): as the sequence (Q15370 whole entry partner, looked up, the tested form may be a part) above
VHL co-expressed with Elongins B and C, sequence (Q15369 whole entry partner, looked up): as the sequence (Q15369 whole entry partner, looked up, the tested form may be a part) above

As for `Cc1ncsc1-c1ccc(C2(C)NC(C3C[C@@H](O)CN3C(=O)C(c3cc(OCCN4CC[C@H](NC(=O)c5cc6c(cc5CS(C)(=O)=O)-c5cn(C)c(=O)c7[nH]cc(c57)CN6c5ncc(F)cc5F)C4)no3)C(C)C)=NC2=O)cc1` (single isomer, unassigned) [Example 1002.3], in test [1] (4 h), the “Maximum Inhibition (%)” value was determined as 69.8%. Also, in test [1] (Homo sapiens, MV4-11, 4 h), the 50% inhibitory concentration (IC50) stood at 123 nM.

As for `CC(=O)N1CCCCC1C(=O)N1C[C@H](O)CC1C1=NC(=O)[C@](C)(c2ccc(-c3scnc3C)cc2)N1` (single isomer, unassigned) [Example 124.2], the half-maximal inhibitory concentration (IC50) in test [2] turned out to be 54.6 µM; in test [3], 32.9 µM. Also, in test [4], the dissociation constant Kd is 10.1 µM.

`Cc1cc([C@H](C(=O)N2C[C@H](O)C[C@H]2C2=NO[C@@](C)(c3ccc(Br)cc3)N2)C(C)C)on1` (mixture of isomers) [Example 113.2, (2S)-1-((2S,4R)-2-(5-(4-Bromophenyl)-5-methyl-4,5-dihydro-1,2,4-oxadiazol-3-yl)-4-hydroxypyrrolidin-1-yl)-3-methyl-2-(3-methylisoxazol-5-yl)butan-1-one and (2R)-1-((2S,4R)-2-(5-(4-Bromophenyl)-5-methyl-4,5-dihydro-1,2,4-oxadiazol-3-yl)-4-hydroxypyrrolidin-1-yl)-3-methyl-2-(3-methylisoxazol-5-yl)butan-1-one]: the concentration for half-maximal inhibition (IC50) was 2.94 µM in test [2] and 6.3 µM in test [3]. In test [4], this molecule had a Kd of 2.49 µM.

As for `CC(=O)N1CCCCC1C(=O)N1C[C@H](O)CC1C1=NC(=O)[C@](C)(c2ccc(-c3scnc3C)cc2)N1` (single isomer, unassigned) [Example 124.1], the IC50 was 100 µM in test [2] and no less than 400 µM in test [3]. Besides, the Kd in test [4] was no less than 150 µM.

For the molecule `Cc1cc([C@@H](C(=O)N2C[C@H](O)C[C@H]2C2=NOC(C)(c3ccc(-c4scnc4C)cc3)N2)C(C)C)on1` (single isomer, unassigned) [Example 129.2], the values for the half-maximal inhibitory concentration (IC50) in test [2] and in test [3] were 77.9 µM and 58.4 µM, respectively. The molecule also showed a dissociation constant Kd in test [4] of 57 µM.

In the case of `Cc1ncsc1-c1ccc([C@]2(C)NC(C3C[C@@H](O)CN3C(=O)C3N(S(C)(=O)=O)CCC3(C)C)=NC2=O)cc1` (single isomer, unassigned) [Example 125.4], the values for the IC50 in test [2] and in test [3] were 100 µM and no less than 400 µM, respectively. Besides, the Kd in test [4] was no less than 150 µM.

In test [3], `Cc1ncsc1-c1ccc([C@]2(C)NC(C3C[C@@H](O)CN3C(=O)C(c3cc(OCCCCCNC(=O)c4cc5c(cc4CS(C)(=O)=O)-c4cn(C)c(=O)c6[nH]cc(c46)CN5c4ncc(F)cc4F)no3)C(C)C)=NC2=O)cc1` (single isomer, unassigned) [Example 1001.4] had an IC50 greater than 100 µM. Also, in test [1] (4 h), the IC50 turned out to be 26.1 nM and the “Maximum Inhibition (%)” value amounted to 75.7%.

In the case of `CC(=O)N1CCC[C@H]1C(=O)N1C[C@H](O)CC1C1=NC(=O)[C@](C)(c2ccc(-c3scnc3C)cc2)N1` (single isomer, unassigned) [Example 121.1], the IC50 in test [2] is 100 µM; in test [3], 65.5 µM. The same molecule came in with a Kd in test [4] of 29.2 µM.

`Cc1cc([C@@H](C(=O)N2C[C@H](O)C[C@H]2C2=NOC(C)(c3ccc(Br)cc3)N2)C(C)C)on1` (mixture of isomers) [Example 113.1, (2S)-1-((2S,4R)-2-(5-(4-Bromophenyl)-5-methyl-4,5-dihydro-1,2,4-oxadiazol-3-yl)-4-hydroxypyrrolidin-1-yl)-3-methyl-2-(3-methylisoxazol-5-yl)butan-1-one and (2R)-1-((2S,4R)-2-(5-(4-Bromophenyl)-5-methyl-4,5-dihydro-1,2,4-oxadiazol-3-yl)-4-hydroxypyrrolidin-1-yl)-3-methyl-2-(3-methylisoxazol-5-yl)butan-1-one]: the IC50 in test [2] was determined as 96.9 µM; in test [3] it was 70.6 µM. In test [4], the dissociation constant (Kd) came out at 24.1 µM.

Regarding `Cc1ncsc1-c1ccc(C2(C)NC(C3C[C@@H](O)CN3C(=O)C(c3cc(OCCN4CC[C@H](NC(=O)c5cc6c(cc5CS(C)(=O)=O)-c5cn(C)c(=O)c7[nH]cc(c57)CN6c5ncc(F)cc5F)C4)no3)C(C)C)=NC2=O)cc1` (single isomer, unassigned) [Example 1002.4], in test [1] (4 h), 80.4 nM corresponded to half-maximal inhibition (IC50) and the “Maximum Inhibition (%)” value was 69.9%.

On to `Cc1cc([C@H](C(=O)N2C[C@H](O)C[C@H]2C2=NOC(C)(c3ccc(-c4scnc4C)cc3)N2)C(C)C)on1` (single isomer, unassigned) [Example 129.3], for which the results for the half-maximal inhibitory concentration (IC50) in test [2] and in test [3] were 0.304 µM and 0.418 µM, respectively. The same molecule registered a Kd in test [4] of 0.0293 µM.

Consider `Cc1cc([C@@H](C(=O)N2C[C@H](O)C[C@H]2C2=NO[C@](C)(c3ccc(Br)cc3)N2)C(C)C)on1` (mixture of isomers) [Example 113.3, (2S)-1-((2S,4R)-2-(5-(4-Bromophenyl)-5-methyl-4,5-dihydro-1,2,4-oxadiazol-3-yl)-4-hydroxypyrrolidin-1-yl)-3-methyl-2-(3-methylisoxazol-5-yl)butan-1-one and (2R)-1-((2S,4R)-2-(5-(4-Bromophenyl)-5-methyl-4,5-dihydro-1,2,4-oxadiazol-3-yl)-4-hydroxypyrrolidin-1-yl)-3-methyl-2-(3-methylisoxazol-5-yl)butan-1-one], for which the IC50 worked out at 100 µM in test [2] and 400 µM in test [3]. In addition, the dissociation constant Kd in test [4] was 90.8 µM.

Regarding `Cc1cc(C(C(=O)N2C[C@H](O)C[C@H]2C2=NN(CC(F)(F)F)C(C)(C)N2)C(C)C)on1` (single isomer, unassigned) [Example 134.2], the IC50 in test [2] is 41.3 µM; in test [3] it was 48.2 µM. The same molecule showed a Kd in test [4] of 57.4 µM.

For `Cc1cc([C@H](C(=O)N2C[C@H](O)C[C@H]2C2=NO[C@](c3ccccc3)(C(F)(F)F)N2)C(C)C)on1` (mixture of isomers) [Example 114.4, (2S)-1-((2S,4R)-4-Hydroxy-2-(5-phenyl-5-(trifluoromethyl)-4,5-dihydro-1,2,4-oxadiazol-3-yl)pyrrolidin-1-yl)-3-methyl-2-(3-methylisoxazol-5-yl)butan-1-one and (2R)-1-((2S,4R)-4-Hydroxy-2-(5-phenyl-5-(trifluoromethyl)-4,5-dihydro-1,2,4-oxadiazol-3-yl)pyrrolidin-1-yl)-3-methyl-2-(3-methylisoxazol-5-yl)butan-1-one], the IC50 was found to be 59.9 µM in test [2] and 58.3 µM in test [3]. For the same molecule, the Kd in test [4] worked out at 5.86 µM.

The IC50 is the concentration that gives 50% inhibition. A low value points to higher potency. By Kd is commonly meant the constant that tells how readily two partners part at equilibrium. Read a high Kd as a looser complex.
